Results as given in patent US4593090A, “Novel nitrosourea compounds, method for preparing same, and pharmaceutical composition containing same” (Gogo Kimura, priority 1981, dated 1986).

Assays:
Leukemia L1210 = assay: Activity against Leukemia L1210, intraperitoneal, increase in life span of mice; type: in vivo, female mice (BDF1 family); conditions: for ED (maximum ILS) / ED30: Mus musculus, L1210, ip; for ED (maximum ILS): read-out: O.D. (optimum dosage); for ED30: read-out: ILS30; for Survivors after 60 days / Max. ILS % / Therapeutic ratio TR: ip; for Survivors after 60 days: 6-membered group; for Max. ILS %: 60-day observation, versus control; for Therapeutic ratio TR: O.D./ILS30
Procedure: Tests were conducted in accordance with the method for measuring antitumor activity of National Cancer Center Tokyo (A, Hoshi et al, Farumashia 9 464 (1973)). Test compounds were each intraperitoneally (referred to as ip) or orally (referred to as op) administered once a day for 5 successive days to a 6-membered group of femal mice (BDF1 family, each weighing 20 to 23 g) 24 hours after 1×10^5 cells of Leukemia L1210 have been implantated into the abdominal cavities of the mice, and the effect was evaluated by comparing the survival days of treated groups with those of an untreated group of mice (control group) in 60-day observation. An increase percentage of life span (ILS%) was calculated from said average survival days compared with those of the control group. Further, therapeutic ratio (O.D./ILD30, referred to as T.R.) of each tested compound was calculated from the daily dosage of the compound necessary to increase said average survival days by 30% as compared with the control group (this dosage is referred to as ILS 30) and the daily dosage giving a maximum increase of life span to mice implantated with L1210 cells, namely an optimum dosage (referred to as O.D.). The results of five successive days intraperitoneal administrations of test compounds were shown in Tables I to III, and those of five successive oral administrations in Table IV.

[1] = Acute toxicity (LD50, Behrens-Karber method); type: in vivo, ICR mice; conditions: ip, mortality during 30 days; for LD50 at 720 h: mouse, in vivo
Procedure: Test compounds, dissolved or suspended in 0.5% aqueous CMC, were each intraperitoneally administered to ICR mice in a dose of 0.1 ml per 10 g body weight. LD50 (mg/kg) value of each test compound was calculated from the mortality of mice during 30 days by the Behrens-Karber method.

[2] = ip once a day for 5 successive days, daily dosage giving maximum increase of life span
[3] = ip once a day for 5 successive days, daily dosage increasing average survival days by 30%

| SMILES | ED (maximum ILS) (Leukemia L1210; [2]) | ED30 (Leukemia L1210; [3]) | Survivors after 60 days (Leukemia L1210) | Max. ILS % (Leukemia L1210) | Therapeutic ratio TR (Leukemia L1210) | LD50 at 720 h [1] | O.D. (optimum dosage) (Leukemia L1210; [2]) | ILS30 (Leukemia L1210; [3]) | LD50 [1] |
| --- | --- | --- | --- | --- | --- | --- | --- | --- | --- |
| C=C(C)CN(C[C@H]1O[C@H](OC(C)CC)[C@H](O)[C@@H](O)[C@@H]1O)C(=O)N(CCCl)N=O (stereo partly drawn) [Compound 18, 3-(2-methyl-2-propenyl)-3-(sec-butyl α-D-glucopyranose-6-yl)-1-(2-chloroethyl)-1-nitrosourea] | 170 mg/kg | 3.92 mg/kg | 6/6 | > 700% | 43.4 | 515 mg/kg | – | – | – |
| COc1ccc(CN(C[C@H]2O[C@H](OCC(C)C)[C@H](O)[C@@H](O)[C@@H]2O)C(=O)N(CCCl)N=O)cc1 [Compound 21, 3-(p-methoxybenzyl)-3-(isobutyl α-D-glucopyranose-6-yl)-1-(2-chloroethyl)-1-nitrosourea] | 200 mg/kg | 5.45 mg/kg | 3/6 | > 360% | 36.7 | 585 mg/kg | – | – | – |
| CC(C)CO[C@H]1O[C@H](CN(Cc2ccccc2)C(=O)N(CCCl)N=O)[C@@H](O)[C@H](O)[C@H]1O [Compound 22, 3-benzyl-3-(isobutyl α-D-glucopyranose-6-yl)-1-(2-chloroethyl)-1-nitrosourea] | 170 mg/kg | 4.45 mg/kg | 3/6 | > 350% | 38.2 | 510 mg/kg | – | – | – |
| CC(C)CO[C@H]1O[C@H](CN(Cc2ccco2)C(=O)N(CCCl)N=O)[C@@H](O)[C@H](O)[C@H]1O [Compound 24, 3-furfuryl-3-(isobutyl α-D-glucopyranose-6-yl)-1-(2-chloroethyl)-1-nitrosourea] | 180 mg/kg | 3.1 mg/kg | 5/6 | > 620% | 58.1 | 555 mg/kg | – | – | – |
| CC(C)CCO[C@H]1O[C@H](CN(CC(C)C)C(=O)N(CCCl)N=O)[C@@H](O)[C@H](O)[C@H]1O [Compound 25, 3-isobutyl-3-(isopentyl α-D-glucopyranose-6-yl)-1-(2-chloroethyl)-1-nitrosourea] | 150 mg/kg | 4.2 mg/kg | 6/6 | > 700% | 35.7 | 450 mg/kg | – | – | – |
| CCCCCCO[C@H]1O[C@H](CN(CC(C)C)C(=O)N(CCCl)N=O)[C@@H](O)[C@H](O)[C@H]1O [Compound 26, 3-isobutyl-3-(n-hexyl α-D-glucopyranose-6-yl)-1-(2-chloroethyl)-1-nitrosourea] | 140 mg/kg | 4.63 mg/kg | 3/6 | > 370% | 30.2 | 415 mg/kg | – | – | – |
| CCCCCCO[C@H]1O[C@H](CN(C(=O)N(CCCl)N=O)C(C)COC)[C@@H](O)[C@H](O)[C@H]1O (stereo partly drawn) [Compound 27, 3-(1-methyl-2-methoxyethyl)-3-(n-hexyl α-D-glucopyranose-6-yl)-1-(2-chloroethyl)-1-nitrosourea] | 170 mg/kg | 4.67 mg/kg | 5/6 | > 630% | 36.4 | 505 mg/kg | – | – | – |
| CC(C)CN(C[C@H]1O[C@H](OC(C)(C)C)[C@H](O)[C@@H](O)[C@@H]1O)C(=O)N(CCCl)N=O [Compound 28, 3-isobutyl-3-(2-methyl-2-propyl α-D-glucopyranose-6-yl)-1-(2-chloroethyl)-1-nitrosourea] | – | – | 6/6 | > 700% | 43.2 | – | 130 mg/kg | 3.00 mg/kg | 375 mg/kg |
| CC=CCO[C@H]1O[C@H](CN(CC(C)C)C(=O)N(CCCl)N=O)[C@@H](O)[C@H](O)[C@H]1O [Compound 29, 3-isobutyl-3-(2-butenyl α-D-glucopyranose-6-yl)-1-(2-chloroethyl)-1-nitrosourea] | 140 mg/kg | 3.64 mg/kg | 5/6 | > 620% | 38.5 | 410 mg/kg | – | – | – |
| CCOCCCO[C@H]1O[C@H](CN(CC(C)C)C(=O)N(CCCl)N=O)[C@@H](O)[C@H](O)[C@H]1O [Compound 32, 3-isobutyl-3-(3-ethoxy-n-propyl α-D-glucopyranose-6-yl)-1-(2-chloroethyl)-1-nitrosourea] | 170 mg/kg | 2.91 mg/kg | 6/6 | > 700% | 58.4 | 495 mg/kg | – | – | – |
| COCC(C)O[C@H]1O[C@H](CN(CC(C)C)C(=O)N(CCCl)N=O)[C@@H](O)[C@H](O)[C@H]1O (stereo partly drawn) [Compound 33, 3-isobutyl-3-(1-methyl-2-methoxyethyl α-D-glucopyranose-6-yl)-1-(2-chloroethyl)-1-nitrosourea] | 170 mg/kg | 2.62 mg/kg | 6/6 | > 700% | 64.9 | 560 mg/kg | – | – | – |
| COCC(C)O[C@H]1O[C@H](CN(CC2CC2)C(=O)N(CCCl)N=O)[C@@H](O)[C@H](O)[C@H]1O (stereo partly drawn) [Compound 34, 3-cyclopropylmethyl-3-(1-methyl-2-methoxyethyl α-D-glucopyranose-6-yl)-1-(2-chloroethyl)-1-nitrosourea] | 150 mg/kg | 2.34 mg/kg | 6/6 | > 700% | 64.1 | 480 mg/kg | – | – | – |
| CC(C)CN(C[C@H]1O[C@H](OC2CCCCC2)[C@H](O)[C@@H](O)[C@@H]1O)C(=O)N(CCCl)N=O [Compound 36, 3-isobutyl-3-(cyclohexylα-D-glucopyranose-6-yl)-1-(2-chloroethyl)-1-nitrosourea] | 180 mg/kg | 3.69 mg/kg | 6/6 | > 700% | 48.8 | 580 mg/kg | – | – | – |
| CCC(C)N(C[C@H]1O[C@H](OC2CCCCC2)[C@H](O)[C@@H](O)[C@@H]1O)C(=O)N(CCCl)N=O (stereo partly drawn) [Compound 37, 3-sec-butyl-3-(cyclohexyl α-D-glucopyranose-6-yl)-1-(2-chloroethyl)-1-nitrosourea] | 200 mg/kg | 3.69 mg/kg | 5/6 | > 620% | 54.2 | 605 mg/kg | – | – | – |
| C=CCN(C[C@H]1O[C@H](OC2CCCCC2)[C@H](O)[C@@H](O)[C@@H]1O)C(=O)N(CCCl)N=O [Compound 38, 3-(2-propenyl) -3-(cyclohexyl α-D-glucopyranose-6-yl)-1-(2-chloroethyl)-1-nitrosourea] | 150 mg/kg | 3.28 mg/kg | 6/6 | > 700% | 45.7 | 430 mg/kg | – | – | – |
| O=NN(CCCl)C(=O)N(CCCCO)C[C@H]1O[C@H](OC2CCCCC2)[C@H](O)[C@@H](O)[C@@H]1O [Compound 43] | 160 mg/kg | 4.68 mg/kg | 4/6 | > 435% | 34.2 | 520 mg/kg | – | – | – |
| O=NN(CCCl)C(=O)N(CC1CC1)C[C@H]1O[C@H](OC2CCCCC2)[C@H](O)[C@@H](O)[C@@H]1O [Compound 44, 3-cyclopropylmethyl-3-(cyclohexyl α-D-glucopyranose-6-yl)-1-(2-chloroethyl)-1-nitrosourea] | 150 mg/kg | 3.32 mg/kg | 6/6 | > 700% | 45.2 | 435 mg/kg | – | – | – |
